According to PMC11681159, “Bee pollen peptides as potent tyrosinase inhibitors with anti-melanogenesis effects in murine b16f10 melanoma cells and zebrafish embryos” (Scientific Reports, 2024):
Ends that are not written are not given here.

Tested on: TYR in B16F10 melanoma cells
Test: Cellular TYR assay
Assay type: cell-based, mouse
Conditions: VY-9 1.6 µM, 48 h, L-DOPA, 490 nm
Experimental: In order to assess the rate of oxidation for L-DOPA, culture flasks were used to first grow B16F10 cells (1 × 10^5 cells/flask) for 24 h. […] Cell harvesting was conducted by trypsinization and the cells were then rinsed twice in cold PBS. In the next step, PBS buffer (0.2 mL, pH 6.8) which contained 1% (w/v) Triton X-100 and 1 mM PMSF was introduced to the lysed cell pellets, whereupon amounts of 100 µL of the lysed cells were added to a 96-well plate by pipette, along with 100 µL of 2 mM L-DOPA. This was followed by a one-hour incubation period while the temperature was maintained at 37 °C. A microplate reader was then used to detect the formation of dopachrome in the mixture at 490 nm. The findings are presented in terms of percentage of the control, while arbutin (0.2 mM) served as the positive control. Each test was carried out in triplicate, with the findings presented in the form of mean ± standard deviation.

VDGYPAAGY [VY-9, Val-Asp-Gly-Tyr-Pro-Ala- Ala-Gly-Tyr]
cellular TYR activity, rate of inhibition: 44.88%
